Patent US8293731B2, “HIV integrase inhibitors” (Merck Sharp + Dohme Corp., priority 2005, dated 2012)

tested on: HIV; experiment: Assay for inhibition of HIV replication (spread assay): acute HIV infection of T-lymphoid cells; assay type: cell-based; conditions: Human immunodeficiency virus 1, 'less than about'
Description: Assays for the inhibition of acute HIV infection of T-lymphoid cells were conducted in accordance with Vacca, J. P. et al., Proc. Natl. Acad. Set USA 1994, 91: 4096. […] For example, the compounds of Examples 1 to 64 were tested in this assay and found to have IC95 values of less than about 10 micromolar.

SMILES	IC95 [µM]
CN1CC(N2CCCC2)CCn2c(c3c(c(O)c2=O)C(=O)N(Cc2ccc(F)c(Cl)c2)CC3)C1=O (stereo not shown) [Example 26, 11-(3-Chloro-4-fluorobenzyl)-9-hydroxy-2-methyl-4-pyrrolidin-1-yl-3,4,5,6,12,13-hexahydro-2H[1,4]diazocmo[2,1-a]-2,6-naphthyridine-1,8,10(11H)-trione]	< 10
CC1C(=O)N(C)c2c3c(c(O)c(=O)n21)C(=O)N(Cc1ccc(F)c(Cl)c1)CC3 (stereo not shown) [Example 8, 8-(3-Chloro-4-fluorobenzyl)-6-hydroxy-1,3-dimethyl-1,8,9,10-tetrahydroimidazo[2,1-a]-2,6-naphthyridine-2,5,7(3H)-trione]	< 10
CNC(=O)CN1CCCCn2c(c3c(c(O)c2=O)C(=O)N(Cc2ccc(F)c(Cl)c2)CC3)C1=O [Example 14, 2-[11-(3-Chloro-4-fluorobenzyl)-9-hydroxy-1,8,10-trioxo-1,3,4,5,6,8,10,11,12,13-deca-hydro-2H-[1,4]diazocino[2,1-a]-2,6-naphthyridin-2-yl]-N-methylacetamide]	< 10
CC1CCCN(CCn2cccn2)C(=O)c2c3c(c(O)c(=O)n21)C(=O)N(Cc1ccc(F)c(Cl)c1)CC3 (stereo not shown) [Example 35, 11-(3-Chloro-4-fluorobenzyl)-9-hydroxy-2-[2-(1H-pyrazol-1-yl)ethyl]-6-methyl-3,4,5,6,12,13-hexahydro-2H[1,4]diazocino[2,1-a]-2,6-naphthyridine-1,8,10(11H)-trione]	< 10
CN(C)C(=O)CN1C(=O)C(C)(C)n2c1c1c(c(O)c2=O)C(=O)N(Cc2ccc(F)c(Cl)c2)CC1 [Example 51, 2-[8-(3-Chloro-4-fluorobenzyl)-6-hydroxy-3,3-dimethyl-2,5,7-trioxo-2,3,7,8,9,10-hexahydroimidazo[2,1-a]-2,6-naphthyridin-1(5H)-yl]-N,N-dimethylacetamide]	< 10
CC(=O)OCCCCN1C(=O)C(C)(C)n2c1c1c(c(O)c2=O)C(=O)N(Cc2ccc(F)c(Cl)c2)CC1 [Example 59, 8-(3-Chloro-4-fluorobenzyl)-6-hydroxy-1-(4-acetyloxybutyl)-3,3-dimethyl-1,8,9,10-tetrahydroimidazo[2,1-a]-2,6-naphthyridine-2,5,7(3H)-trione]	< 10
NC(=O)CN1CCCCn2c(c3c(c(O)c2=O)C(=O)N(Cc2ccc(F)c(Cl)c2)CC3)C1=O [Example 15, 2-[11-(3-Chloro-4-fluorobenzyl)-9-hydroxy-1,8,10-trioxo-1,3,4,5,6,8,10,11,12,13-deca-hydro-2H-[1,4]diazocino[2,1-a]-2,6-naphthyridin-2-yl]acetamide]	< 10
O=C1c2c(c3n(c(=O)c2O)CCCCN(CCN2CCCCC2)C3=O)CCN1Cc1ccc(F)c(Cl)c1 [Example 18, 11-(3-Chloro-4-fluorobenzyl)-9-hydroxy-2-(2-piperidinyl-1-ylethyl)-3,4,5,6,12,13-hexahydro-2H[1,4]diazocino[2,1-a]-2,6-naphthyridine-1,8,10(11H)-trione]	< 10
CC1CCCN(CCN2CCOCC2)C(=O)c2c3c(c(O)c(=O)n21)C(=O)N(Cc1ccc(F)c(Cl)c1)CC3 (stereo not shown) [Example 32, 11-(3-Chloro-4-fluorobenzyl)-9-hydroxy-2-(2-morpholin-4-ylethyl)-6-methyl-3,4,5,6,12,13-hexahydro-2H[1,4]diazocino[2,1-a]-2,6-naphthyridine-1,8,10(11H)-trione]	< 10
CNC(=O)CN1C(=O)C(C)(C)n2c1c1c(c(O)c2=O)C(=O)N(Cc2ccc(F)c(Cl)c2)CC1 [Example 52, 2-[8-(3-Chloro-4-fluorobenzyl)-6-hydroxy-3,3-dimethyl-2,5,7-trioxo-2,3,7,8,9,10-hexahydroimidazo[2,1-a]-2,6-naphthyridin-1(5H)-yl]-N-methylacetamide]	< 10
